From patent publication US8273769B2, “Phenoxy acetic acid derivatives” (Merck Serono SA, priority 2009, dated 2012)

Biological target: T1, CRTH2 (Homo sapiens, UniProt Q9Y5Y4)
T1 sequence (Q9Y5Y4 1-395): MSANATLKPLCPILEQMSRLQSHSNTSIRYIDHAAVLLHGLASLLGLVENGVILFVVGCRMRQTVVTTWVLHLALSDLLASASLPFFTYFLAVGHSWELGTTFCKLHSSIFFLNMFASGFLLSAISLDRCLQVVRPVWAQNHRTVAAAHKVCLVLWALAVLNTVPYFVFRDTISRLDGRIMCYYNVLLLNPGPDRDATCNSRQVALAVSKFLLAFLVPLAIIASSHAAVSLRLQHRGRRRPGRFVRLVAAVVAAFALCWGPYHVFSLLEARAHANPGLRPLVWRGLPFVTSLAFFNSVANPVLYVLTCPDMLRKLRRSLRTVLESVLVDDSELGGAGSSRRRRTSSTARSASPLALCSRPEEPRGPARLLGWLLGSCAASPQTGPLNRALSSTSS
Test: Radioligand binding Scintillation Proximity Assay ([3H]PGD2, hCRTH2-CHO cell membranes)
Set-up: host or cells: CHO cells
Conditions: 1.5 nM [3H]PGD2, hCRTH2-CHO cell membranes, SPA
Protocol: Adherent CHO cells expressing hCRTH2 (Euroscreen, Belgium) were cultured in 225 cm^2 cell culture flasks (Corning, USA) in 30 ml of medium. After two rinses of phosphate buffered saline (PBS), cells were harvested in 10 ml of PBS containing 1 mM EDTA, centrifuged at 500×g for 5 min at 4° C. and frozen at −80° C. The pellet was re-suspended in 50 mM Tris-HCl, pH 7.4, 2 mM EDTA, 250 mM Sucrose, containing protease inhibitor cocktail tablets, (Complete EDTA-free, Roche, Germany) and incubated 30 min at 4° C. Cells were disrupted by nitrogen cavitation (Parr Instruments, USA) at 4° C. (800 p.s.i. for 30 min), and centrifuged at 500×g for 10 min at 4° C. Pellet containing nuclei and cellular debris was discarded and supernatant was centrifuged 60 min at 4° C. at 45000×g. Membrane pellet was re-suspended in storage buffer (10 mM HEPES/KOH pH 7.4, 1 mM EDTA, 250 mM sucrose, protease inhibitor cocktail tablets) using Dounce homogenization and frozen in liquid nitrogen, and stored at −80° C.
The inhibitory activity can be investigated by a radioligand binding Scintillation Proximity Assay (SPA) (Sawyer et al., Br. J. Pharmocol 2002, 137, 1163-72). The SPA radioligand binding assay was performed at room temperature in binding buffer (10 mM HEPES/KOH pH 7.4, 10 mM MnCl2, with protease inhibitor cocktail tablets), containing 1.5 nM [^3H]PGD2 (Perkin Elmer), 10-50 μg/ml of hCRTH2-CHO cell membrane protein and 2 mg/ml of Wheat-germ agglutinin Sintillation Proximity Assay beads (RPNQ0001, GE-Healthcare) in a final volume of 100 μl in 96 well plates (Corning, USA). Non-specific binding was determined in the presence of 10 μM PGD2 (Cayman, USA). Competing Compounds of Formula (I) were diluted in dimethylsulphoxide so that the total volume of dimethylsulfoxide was kept constant at 1% dimethylsulphoxide (Me2SO). Serial dilutions of 100 μM to 100 pM were prepared and 10 μl each of the compounds of Formula (I) stock solutions were added to the binding assay reagents and incubated for 90 min with agitation at room temperature. Binding activity was determined by using a 1450 Micro-beta scintillation counter (Wallac, UK).

Row | SMILES | IC50 [nM]
1 | COCc1ccc(F)c(C#Cc2cc(Cl)ccc2OCC(=O)O)c1 [Example 30, (4-chloro-2-{[2-fluoro-5-(methoxymethyl)phenyl]ethynyl}phenoxy)acetic acid] | 85
2 | CN(c1cncc(C#Cc2cc(C#N)ccc2OCC(=O)O)c1)S(C)(=O)=O [Example 72, [4-cyano-2-({5-[methyl(methylsulfonyl)amino]pyridin-3-yl}ethynyl)phenoxy]acetic acid] | 364
3 | O=C(O)COc1cc(F)ccc1C#Cc1ccccc1Cl [Example 37, {2-[(2-chlorophenyl)ethynyl]-5-fluorophenoxy}acetic acid] | 5940
4 | O=C(O)COc1ccc(Cl)cc1C#Cc1ccc(C(=O)N2CCOCC2)cc1 [Example 124, (4-chloro-2-{[4-(morpholin-4-ylcarbonyl)phenyl]ethynyl}phenoxy)acetic acid] | 106
5 | Cc1nc(C)c(C#Cc2cc(Cl)ccc2OCC(=O)O)s1 [Example 24, {4-chloro-2-[(2,4-dimethyl-1,3-thiazol-5-yl)ethynyl]phenoxy}acetic acid] | 102
6 | CC1(C)C(O)c2ccc(C#Cc3cc(Cl)ccc3OCC(=O)O)cc2S1(=O)=O (stereo not shown) [Example 159, {4-chloro-2-[(3-hydroxy-2,2-dimethyl-1,1-dioxido-2,3-dihydro-1-benzothien-6-yl)ethynyl]phenoxy}acetic acid] | 37
7 | O=C(O)COc1ccc(C(F)(F)F)cc1C#Cc1ccccc1Cl [Example 41, [2-[(2-chlorophenyl)ethynyl]-4-(trifluoromethyl)phenoxy]acetic acid] | 15
8 | CS(=O)(=O)c1cc(C#Cc2cc(Cl)ccc2OCC(=O)O)ccc1-c1ccccc1Cl [Example 146, (4-chloro-2-{[2′-chloro-2-(methylsulfonyl)biphenyl-4-yl]ethynyl}phenoxy)acetic acid] | 4
9 | CS(=O)(=O)Nc1cncc(C#Cc2cc(Cl)ccc2OCC(=O)O)c1 [Example 39, [4-chloro-2-({5-[(methylsulfonyl)amino]pyridin-3-yl}ethynyl)phenoxy]acetic acid] | 23
10 | Cc1ccc(NS(C)(=O)=O)cc1C#Cc1cc(Cl)ccc1OCC(=O)O [Example 137, [4-chloro-2-({2-methyl-5-[(methylsulfonyl)amino]phenyl}ethynyl)phenoxy]acetic acid] | 70
11 | CCCS(=O)(=O)c1cccc(C#Cc2c(Cl)cccc2OCC(=O)O)c1 [Example 74, (3-chloro-2-{[3-(propylsulfonyl)phenyl]ethynyl}phenoxy)acetic acid] | 70
12 | Cc1ccc(S(=O)(=O)N(C)CCCN(C)C)cc1C#Cc1cc(Cl)ccc1OCC(=O)O [Example 119, {4-chloro-2-[(5-{[[3-(dimethylamino)propyl](methyl)amino]sulfonyl}-2-methylphenyl)ethynyl]phenoxy}acetic acid] | 369
13 | Cc1ccc(OCC(=O)O)c(C#Cc2ccccc2Cl)c1 [Example 27, {2-[(2-chlorophenyl)ethynyl]-4-methylphenoxy}acetic acid] | 346
14 | CS(=O)(=O)c1cccc(C#Cc2cc(Cl)ccc2OCC(=O)O)c1 [Example 18, (4-chloro-2-{[3-(methylsulfonyl)phenyl]ethynyl}phenoxy)acetic acid] | 19
15 | CCCNS(=O)(=O)c1ccc(C)c(C#Cc2cc(Cl)ccc2OCC(=O)O)c1 [Example 118, [4-chloro-2-({2-methyl-5-[(propylamino)sulfonyl]phenyl}ethynyl)phenoxy]acetic acid] | 4
16 | CCN(CC)C(=O)c1ccc(C#Cc2cc(Cl)ccc2OCC(=O)O)cc1S(=O)(=O)C(C)C [Example 165, (4-chloro-2-{[4-[(diethylamino)carbonyl]-3-(isopropylsulfonyl)phenyl]ethynyl}phenoxy)acetic acid] | 53
17 | COc1ccccc1C#Cc1cc(Cl)ccc1OCC(=O)O [Example 6, {4-chloro-2-[(2-methoxyphenyl)ethynyl]phenoxy}acetic acid] | 229

Row | SMILES | IC50 [nM]
18 | N#Cc1ccc(F)c(C#Cc2cc(Cl)ccc2OCC(=O)O)c1 [Example 21, {4-chloro-2-[(5-cyano-2-fluorophenyl)ethynyl]phenoxy}acetic acid] | 46
19 | CN(c1cncc(C#Cc2cc(Cl)ccc2OCC(=O)O)c1)S(C)(=O)=O [Example 47, [4-chloro-2-({5-[methyl(methylsulfonyl)amino]pyridin-3-yl}ethynyl)phenoxy]acetic acid] | 340
20 | CCCS(=O)(=O)c1cccc(C#Cc2c(OCC(=O)O)ccc3ccccc23)c1 [Example 148, [(1-{[3-(propylsulfonyl)phenyl]ethynyl}-2-naphthyl)oxy]acetic acid] | 56
21 | Cc1ccc(S(=O)(=O)CCO)cc1C#Cc1cc(C#N)ccc1OCC(=O)O [Example 64, [4-cyano-2-({5-[(2-hydroxyethyl)sulfonyl]-2-methylphenyl}ethynyl)phenoxy]acetic acid] | 136
22 | CCN(CC)S(=O)(=O)c1ccc(C)c(C#Cc2cc(Cl)ccc2OCC(=O)O)c1 [Example 81, [4-chloro-2-({5-[(diethylamino)sulfonyl]-2-methylphenyl}ethynyl)phenoxy]acetic acid] | 5
23 | Cc1ccc(S(=O)(=O)CCc2ccccc2)cc1C#Cc1cc(Cl)ccc1OCC(=O)O [Example 92, [4-chloro-2-({2-methyl-5-[(2-phenylethyl)sulfonyl]phenyl}ethynyl)phenoxy]acetic acid] | 9
24 | CCCS(=O)(=O)c1cccc(C#Cc2cc(-c3cnn(C)c3)ccc2OCC(=O)O)c1 [Example 135, (4-(1-methyl-1H-pyrazol-4-yl)-2-{[3-(propylsulfonyl)phenyl]ethynyl}phenoxy)acetic acid] | 530
25 | Cc1ccc(S(=O)(=O)NCC(C)(C)C)cc1C#Cc1cc(Cl)ccc1OCC(=O)O [Example 113, {4-chloro-2-[(5-{[(2,2-dimethylpropyl)amino]sulfonyl}-2-methylphenyl)ethynyl]phenoxy}acetic acid] | 2
26 | CN(C)C(=O)c1cccc(C#Cc2cc(Cl)ccc2OCC(=O)O)c1 [Example 127, [4-chloro-2-({3-[(dimethylamino)carbonyl]phenyl}ethynyl)phenoxy]acetic acid] | 68
27 | O=C(O)COc1ccc(Cl)cc1C#Cc1cc(CO)ccc1F [Example 25, (4-chloro-2-{[2-fluoro-5-(hydroxymethyl)phenyl]ethynyl}phenoxy)acetic acid] | 89
28 | COCc1ccc(C#Cc2cc(Cl)ccc2OCC(=O)O)c(F)c1 [Example 34, (4-chloro-2-{[2-fluoro-4-(methoxymethyl)phenyl]ethynyl}phenoxy)acetic acid] | 26
29 | Cc1ccc(S(=O)(=O)N2CCCCC2)cc1C#Cc1cc(Cl)ccc1OCC(=O)O [Example 88, (4-chloro-2-{[2-methyl-5-(piperidin-1-ylsulfonyl)phenyl]ethynyl}phenoxy)acetic acid] | 7
30 | CCCS(=O)(=O)c1cccc(C#Cc2cc(-c3sc(C)nc3C)ccc2OCC(=O)O)c1 [Example 132, (4-(2,4-dimethyl-1,3-thiazol-5-yl)-2-{[3-(propylsulfonyl)phenyl]ethynyl}phenoxy)acetic acid] | 68
31 | Cc1cc(F)c(S(C)(=O)=O)cc1C#Cc1cc(Cl)ccc1OCC(=O)O [Example 97, (4-chloro-2-{[4-fluoro-2-methyl-5-(methylsulfonyl)phenyl]ethynyl}phenoxy)acetic acid] | 8
32 | CS(=O)(=O)Cc1cccc(C#Cc2cc(Cl)ccc2OCC(=O)O)c1 [Example 98, [4-chloro-2-({3-[(methylsulfonyl)methyl]phenyl}ethynyl)phenoxy]acetic acid] | 60
33 | O=C(O)COc1ccc(Cl)cc1C#Cc1ccccc1C(F)(F)F [Example 9, (4-chloro-2-{[2-(trifluoromethyl)phenyl]ethynyl}phenoxy)acetic acid] | 30
34 | CNS(=O)(=O)c1ccc(C)c(C#Cc2cc(Cl)ccc2OCC(=O)O)c1 [Example 84, [4-chloro-2-({2-methyl-5-[(methylamino)sulfonyl]phenyl}ethynyl)phenoxy]acetic acid] | 13
